Test systems include CAKI-1 renal; NCI-H23 lung; NCI-H460 lung; K-562 leukemia; NCI/ADR-RES ovarian; MDA-MB-435; MOLT-4 leukemia; HOP-62 NSCLC; MCF7 breast; IGROV1 ovarian.
Holding throughout (test): NCI anticancer screen, dose series, 48 h

Consider 15 compounds from PubChem BioAssay (NCI).

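Following 48 hours of exposure in 96-well plates, responses at five concentrations were used to interpolate endpoints linearly. The concentration for full growth arrest is given as TGI.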

Consider `Cn1cc(C(=O)c2nccc3c2cnc2ccccc23)ccc1=O`, for which the TGI in the test on CAKI-1 renal, with NCI-H23 lung, in the test on NCI-H460 lung, in the test with K-562 leukemia, in the test on NCI/ADR-RES ovarian and with MDA-MB-435 was over 100 µM each time. Further, the TGI with MOLT-4 leukemia and in the test with HOP-62 NSCLC was over 100 µM throughout.

For the compound `CC1C(c2ccc(F)cc2)c2cc3c(cc2OC1N1CCCC1)OCO3` (stereo not drawn), the TGI in the test on CAKI-1 renal was 58.4 µM; in the test with MCF7 breast it was over 100 µM; in the test on NCI-H23 lung it was over 100 µM; with K-562 leukemia it was over 100 µM; with NCI/ADR-RES ovarian, over 100 µM; in the test with MDA-MB-435, over 100 µM. Besides, the TGI in the test on IGROV1 ovarian and in the test on HOP-62 NSCLC was over 100 µM throughout.

For the compound `O=c1c(O)c(-c2ccc(O)cc2O)oc2cc(O)cc(O)c12`, the TGI in the test on CAKI-1 renal, in the test on MCF7 breast, in the test on NCI-H23 lung, in the test on NCI-H460 lung, in the test on K-562 leukemia and in the test on NCI/ADR-RES ovarian was over 100 µM in each case. Further, the TGI in the test on MDA-MB-435, with IGROV1 ovarian and with HOP-62 NSCLC was over 100 µM throughout.

Take `COc1c(CC=C(C)C)c(O)c(C(CC(C)C)c2c(O)c(C(C)=O)c(O)c3c2OC(C(C)(C)O)C3)c(O)c1C(C)=O` (stereo not drawn): the TGI in the test with CAKI-1 renal was over 12.5 µM; in the test on MCF7 breast it was over 12.5 µM; in the test on NCI-H23 lung, over 12.5 µM; with NCI-H460 lung, over 12.5 µM; in the test on K-562 leukemia it was over 12.5 µM; with NCI/ADR-RES ovarian, 12.2 µM. For the same compound, the TGI with MDA-MB-435, in the test with IGROV1 ovarian and in the test on MOLT-4 leukemia was over 12.5 µM in each case.

Regarding `NC(=O)NC(=O)c1cnccn1`, the TGI in the test with CAKI-1 renal, with MCF7 breast, with NCI-H23 lung, with NCI-H460 lung, in the test on K-562 leukemia and in the test with NCI/ADR-RES ovarian was over 100 µM throughout. In addition, the TGI with MDA-MB-435, with MOLT-4 leukemia and in the test on HOP-62 NSCLC was over 100 µM throughout.

Turning to `c1ccc2c(c1)ccc1nc(-c3ccc4c(c3)OCO4)c3c(c12)CCCC3`, the TGI in the test on CAKI-1 renal, in the test with MCF7 breast, in the test with NCI-H23 lung, in the test with NCI-H460 lung, in the test on K-562 leukemia and in the test on NCI/ADR-RES ovarian was over 100 µM in each case. Also, the TGI in the test with MDA-MB-435 was 87.7 µM; in the test on MOLT-4 leukemia, over 100 µM; in the test with HOP-62 NSCLC it was over 100 µM.

For the compound `CC(=O)/C(C=Nc1c(C)n(C)n(-c2ccccc2)c1=O)=C(/C)O`, the TGI in the test on CAKI-1 renal, with MCF7 breast, in the test with NCI-H23 lung, in the test on K-562 leukemia, with NCI/ADR-RES ovarian and with MDA-MB-435 was over 100 µM each time. The TGI in the test with IGROV1 ovarian and with MOLT-4 leukemia was over 100 µM throughout.

`CN1C2CCC1CC(OC(c1ccccc1)c1ccccc1)C2` (stereo not drawn): the TGI with CAKI-1 renal is over 100 µM; with MCF7 breast, 26.9 µM; in the test with NCI-H23 lung, 83.3 µM; with K-562 leukemia it was 34.5 µM; with NCI/ADR-RES ovarian, 34.3 µM; in the test on MDA-MB-435, 29.8 µM. In addition, the results for the TGI with IGROV1 ovarian, in the test on MOLT-4 leukemia and with HOP-62 NSCLC were 38.8 µM, 73.6 µM and 43 µM, respectively.

With `CSC1=N/C(=C\c2ccc(C)cc2)C(=O)N1CN1CCOCC1`, the TGI in the test on MCF7 breast, in the test with NCI-H23 lung, in the test with K-562 leukemia, in the test with NCI/ADR-RES ovarian, in the test with MDA-MB-435 and in the test on IGROV1 ovarian was over 100 µM each time. Moreover, the TGI with MOLT-4 leukemia and in the test on HOP-62 NSCLC was over 100 µM each time.

Turning to `c1ccc(COc2ccc(CC3SCCCS3)cc2)cc1`, the TGI in the test on CAKI-1 renal, in the test with MCF7 breast, with NCI-H460 lung, in the test with K-562 leukemia, in the test on MDA-MB-435 and with IGROV1 ovarian was over 100 µM in each case. Also, the TGI with MOLT-4 leukemia and in the test on HOP-62 NSCLC was over 100 µM throughout.

For `NCc1ccc(-c2ccc(-c3ccc(-c4ccc(CN)s4)s3)s2)s1`, the TGI in the test with CAKI-1 renal, in the test with MCF7 breast, with NCI-H23 lung, with K-562 leukemia, in the test with NCI/ADR-RES ovarian and with MDA-MB-435 was over 100 µM throughout. Besides, the TGI in the test on IGROV1 ovarian, in the test with MOLT-4 leukemia and in the test on HOP-62 NSCLC was over 100 µM in each case.

As for `CC(C(=O)N1C(=O)N(C(=O)C(C)C(O)c2ccccc2)C(c2ccccc2)C1c1ccccc1)C(O)c1ccccc1` (stereo not drawn), the TGI in the test with MCF7 breast was over 100 µM; in the test on NCI-H23 lung it was over 100 µM; with NCI-H460 lung, 19.9 µM; in the test on K-562 leukemia, 41.6 µM; in the test on MDA-MB-435, 61.2 µM; in the test on IGROV1 ovarian, over 100 µM. Besides, the TGI in the test with MOLT-4 leukemia was 11.9 µM; with HOP-62 NSCLC, over 100 µM.

Regarding `CC(C)=CCC[C@]1(C)CC[C@]2(C)C3CCC(=C(C)C)[C@@H](CCCO)[C@]3(C)CC[C@@]2(C)C1` (stereo partly drawn), the TGI is over 100 µM with CAKI-1 renal; 67.5 µM in the test on MCF7 breast; over 100 µM in the test on NCI-H23 lung; over 100 µM in the test on NCI-H460 lung; over 100 µM in the test on NCI/ADR-RES ovarian; over 100 µM with MDA-MB-435. The TGI is 37.9 µM in the test with IGROV1 ovarian, over 100 µM in the test on MOLT-4 leukemia and over 100 µM in the test on HOP-62 NSCLC.

Take `Cc1ccc(-c2c(C#N)c(-c3ccc(Cl)cc3)c(C#N)c(=O)n2NS(=O)(=O)c2ccccc2)cc1`: the TGI in the test on CAKI-1 renal, with MCF7 breast, in the test on NCI-H460 lung, in the test on K-562 leukemia, in the test on NCI/ADR-RES ovarian and in the test on MDA-MB-435 was over 100 µM each time. Moreover, the TGI with IGROV1 ovarian, with MOLT-4 leukemia and with HOP-62 NSCLC was over 100 µM throughout.

In the case of `CNC(=S)/C(=N\Nc1nc[nH]c1C(N)=O)C(N)=S`, the TGI with CAKI-1 renal is over 94.4 µM; in the test with MCF7 breast, over 100 µM; in the test on NCI-H23 lung, over 94.7 µM; in the test on NCI-H460 lung, over 100 µM; in the test with NCI/ADR-RES ovarian, over 64.5 µM; in the test with MDA-MB-435 it was over 100 µM. Also, the TGI in the test with IGROV1 ovarian is over 61 µM; with HOP-62 NSCLC it was over 100 µM.
